Legend:
Assay in all cases: relative viability (nuclei count vs DMSO), 5 days (fraction); higher = more cells survive
A-427 = system: A-427
Procedure, shortened: (§1)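 Relative viability was taken as the ratio of nuclei in treated wells to nuclei in vehicle wells. Lung cancer cell lines in 1536-well plates received compounds by pin tool one day after seeding, either one drug alone or a fixed anchor-drug dose plus five library-drug doses (not always all listed) in √10 steps. Nuclei were counted on 4× images after 5 days of treatment, and values are medians of duplicate plates.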

CAL-12T = system: CAL-12T
Procedure, shortened: as §1

COR-L 105 = system: COR-L 105
Procedure, shortened: as §1

COR-L23 = system: COR-L23
Procedure, shortened: as §1

EPLC-272H = system: EPLC-272H
Procedure, shortened: as §1

HOP-62 = system: HOP-62
Procedure, shortened: as §1

LCLC-103H = system: LCLC-103H
Procedure, shortened: as §1

LXF-289 = system: LXF-289
Procedure, shortened: as §1

NCI-H1395 = system: NCI-H1395
Procedure, shortened: as §1

NCI-H1651 = system: NCI-H1651
Procedure, shortened: as §1

NCI-H1975 = system: NCI-H1975
Procedure, shortened: as §1

NCI-H1993 = system: NCI-H1993
Procedure, shortened: as §1

NCI-H2023 = system: NCI-H2023
Procedure, shortened: as §1

NCI-H2085 = system: NCI-H2085
Procedure, shortened: as §1

NCI-H2087 = system: NCI-H2087
Procedure, shortened: as §1

NCI-H2170 = system: NCI-H2170
Procedure, shortened: as §1

NCI-H3122 = system: NCI-H3122
Procedure, shortened: as §1

NCI-H596 = system: NCI-H596
Procedure, shortened: as §1

NCI-H647 = system: NCI-H647
Procedure, shortened: as §1

NCI-H650 = system: NCI-H650
Procedure, shortened: as §1

PC-14 = system: PC-14
Procedure, shortened: as §1

RERF-LC-KJ = system: RERF-LC-KJ
Procedure, shortened: as §1

SK-MES-1 = system: SK-MES-1
Procedure, shortened: as §1

O=c1[nH]c2ccccc2n1C1CCN(CCCC(c2ccc(F)cc2)c2ccc(F)cc2)CC1 [Pimozide] + Cc1nc(NC(=O)N2CCC[C@H]2C(N)=O)sc1-c1ccnc(C(C)(C)C(F)(F)F)c1 [Alpelisib] (partner 2 µM)
relative viability (A-427; first compound 0.08 µM): 1.08
relative viability (A-427; first compound 0.253 µM): 1.05
relative viability (A-427; first compound 0.8 µM): 1.14
relative viability (A-427; first compound 2.53 µM): 0.987
relative viability (A-427; first compound 8 µM): 1.01
relative viability (CAL-12T; first compound 0.08 µM): 1.15
relative viability (CAL-12T; first compound 0.253 µM): 1.07
relative viability (CAL-12T; first compound 0.8 µM): 1.02
relative viability (CAL-12T; first compound 2.53 µM): 1.32
relative viability (CAL-12T; first compound 8 µM): 0.923
relative viability (COR-L 105; first compound 0.253 µM): 0.854
relative viability (COR-L 105; first compound 0.8 µM): 0.872
relative viability (COR-L 105; first compound 2.53 µM): 0.802
relative viability (COR-L 105; first compound 8 µM): 0.608
relative viability (COR-L23; first compound 0.08 µM): 0.783
relative viability (COR-L23; first compound 0.253 µM): 0.862
relative viability (COR-L23; first compound 0.8 µM): 0.763
relative viability (COR-L23; first compound 2.53 µM): 0.74
relative viability (COR-L23; first compound 8 µM): 0.695
relative viability (EPLC-272H; first compound 0.08 µM): 0.838
relative viability (EPLC-272H; first compound 0.253 µM): 0.962
relative viability (EPLC-272H; first compound 0.8 µM): 0.894
relative viability (EPLC-272H; first compound 2.53 µM): 0.912
relative viability (EPLC-272H; first compound 8 µM): 0.771
relative viability (HOP-62; first compound 0.08 µM): 1.2
relative viability (HOP-62; first compound 0.253 µM): 0.783
relative viability (HOP-62; first compound 2.53 µM): 0.904
relative viability (HOP-62; first compound 8 µM): 0.794
relative viability (LCLC-103H; first compound 0.08 µM): 0.939
relative viability (LCLC-103H; first compound 0.253 µM): 0.853
relative viability (LCLC-103H; first compound 0.8 µM): 1.01
relative viability (LCLC-103H; first compound 2.53 µM): 0.979
relative viability (LCLC-103H; first compound 8 µM): 0.912
relative viability (LXF-289; first compound 0.08 µM): 0.97
relative viability (LXF-289; first compound 0.253 µM): 0.955
relative viability (LXF-289; first compound 0.8 µM): 1.01
relative viability (LXF-289; first compound 2.53 µM): 1.02
relative viability (LXF-289; first compound 8 µM): 0.945
relative viability (NCI-H1395; first compound 0.08 µM): 1.31
relative viability (NCI-H1395; first compound 0.253 µM): 0.958
relative viability (NCI-H1395; first compound 0.8 µM): 1.06
relative viability (NCI-H1395; first compound 2.53 µM): 1.16
relative viability (NCI-H1395; first compound 8 µM): 0.952
relative viability (NCI-H1651; first compound 0.08 µM): 0.911
relative viability (NCI-H1651; first compound 0.253 µM): 0.945
relative viability (NCI-H1651; first compound 0.8 µM): 0.945
relative viability (NCI-H1651; first compound 2.53 µM): 1.04
relative viability (NCI-H1651; first compound 8 µM): 0.926
relative viability (NCI-H1975; first compound 0.08 µM): 0.64
relative viability (NCI-H1975; first compound 0.253 µM): 0.715
relative viability (NCI-H1975; first compound 0.8 µM): 0.606
relative viability (NCI-H1975; first compound 2.53 µM): 0.602
relative viability (NCI-H1975; first compound 8 µM): 0.535
relative viability (NCI-H1993; first compound 0.08 µM): 0.707
relative viability (NCI-H1993; first compound 0.253 µM): 0.648
relative viability (NCI-H1993; first compound 0.8 µM): 0.716
relative viability (NCI-H1993; first compound 2.53 µM): 0.734
relative viability (NCI-H1993; first compound 8 µM): 0.669
relative viability (NCI-H2023; first compound 0.08 µM): 0.524
relative viability (NCI-H2023; first compound 0.253 µM): 0.632
relative viability (NCI-H2023; first compound 0.8 µM): 0.533
relative viability (NCI-H2023; first compound 2.53 µM): 0.535
relative viability (NCI-H2023; first compound 8 µM): 0.461
relative viability (NCI-H2085; first compound 0.08 µM): 0.928
relative viability (NCI-H2085; first compound 0.253 µM): 0.962
relative viability (NCI-H2085; first compound 0.8 µM): 0.875
relative viability (NCI-H2085; first compound 2.53 µM): 0.981
relative viability (NCI-H2085; first compound 8 µM): 0.864
relative viability (NCI-H2087; first compound 0.08 µM): 0.847
relative viability (NCI-H2087; first compound 0.253 µM): 1.1
relative viability (NCI-H2087; first compound 0.8 µM): 1.01
relative viability (NCI-H2087; first compound 2.53 µM): 0.975
relative viability (NCI-H2087; first compound 8 µM): 0.89
relative viability (NCI-H2170; first compound 0.08 µM): 0.753
relative viability (NCI-H2170; first compound 0.253 µM): 0.792
relative viability (NCI-H2170; first compound 0.8 µM): 0.822
relative viability (NCI-H2170; first compound 2.53 µM): 0.74
relative viability (NCI-H2170; first compound 8 µM): 0.714
relative viability (NCI-H3122; first compound 0.08 µM): 0.833
relative viability (NCI-H3122; first compound 0.253 µM): 0.784
relative viability (NCI-H3122; first compound 0.8 µM): 0.784
relative viability (NCI-H3122; first compound 2.53 µM): 0.784
relative viability (NCI-H3122; first compound 8 µM): 0.795
relative viability (NCI-H596; first compound 0.08 µM): 0.481
relative viability (NCI-H596; first compound 0.253 µM): 0.476
relative viability (NCI-H596; first compound 0.8 µM): 0.374
relative viability (NCI-H596; first compound 2.53 µM): 0.481
relative viability (NCI-H596; first compound 8 µM): 0.392
relative viability (NCI-H647; first compound 0.08 µM): 1.11
relative viability (NCI-H647; first compound 0.253 µM): 1.31
relative viability (NCI-H647; first compound 0.8 µM): 1.11
relative viability (NCI-H647; first compound 2.53 µM): 1
relative viability (NCI-H647; first compound 8 µM): 0.554
relative viability (NCI-H650; first compound 0.08 µM): 1.04
relative viability (NCI-H650; first compound 0.253 µM): 1.05
relative viability (NCI-H650; first compound 0.8 µM): 1.09
relative viability (NCI-H650; first compound 2.53 µM): 1.07
relative viability (NCI-H650; first compound 8 µM): 1.02
relative viability (PC-14; first compound 0.08 µM): 0.606
relative viability (PC-14; first compound 0.253 µM): 0.911
relative viability (PC-14; first compound 0.8 µM): 0.928
relative viability (PC-14; first compound 2.53 µM): 1.05
relative viability (PC-14; first compound 8 µM): 0.955
relative viability (RERF-LC-KJ; first compound 0.08 µM): 0.693
relative viability (RERF-LC-KJ; first compound 0.253 µM): 0.724
relative viability (RERF-LC-KJ; first compound 0.8 µM): 0.807
relative viability (RERF-LC-KJ; first compound 2.53 µM): 0.841
relative viability (RERF-LC-KJ; first compound 8 µM): 0.711
relative viability (SK-MES-1; first compound 0.08 µM): 0.809
relative viability (SK-MES-1; first compound 0.253 µM): 0.966
relative viability (SK-MES-1; first compound 0.8 µM): 0.874
relative viability (SK-MES-1; first compound 2.53 µM): 0.837
relative viability (SK-MES-1; first compound 8 µM): 0.842
